Source: PMC6015499 (Journal of medicinal chemistry, 2017)

Experiment: PAMPA permeability
Assay type: in vitro ADME

| Compound | PAMPA permeability |
| --- | --- |
| Cc1ccccc1-c1nc(CN2CCC(C(=O)NCCCN3C[C@H](C)C[C@@H](C)C3)CC2)c(C)o1 (racemic) [7b, (±)-N-(3-(trans-3,5-Dimethylpiperidin-1-yl)propyl)-1-((5-methyl-2-(o-tolyl)oxazol-4-yl)methyl)piperidine-4-carboxamide] | 553.7 1×10^−6 cm/s |
| Cc1ccccc1-c1nc(CN2CCC(C(=O)NCCCN3CCCC(CC(C)C)C3)CC2)c(C)o1 (racemic) [7l, (±)-N-(3-(3-Isobutylpiperidin-1-yl)propyl)-1-((5-methyl-2-(otolyl)oxazol-4-yl)methyl)piperidine-4-carboxamide] | 3 1×10^−6 cm/s |
| Cc1cccc(Cl)c1-c1nc(CN2CCC(C(=O)NCCCN3CCCC(C)C3)CC2)c(C)o1 (racemic) [7oo, (±)-1-((2-(2-Chloro-6-methylphenyl)-5-methyloxazol-4-yl)-methyl)-N-(3-(3-methylpiperidin-1-yl)propyl)piperidine-4-carboxamide] | 650.6 1×10^−6 cm/s |
| Cc1ccccc1-c1nc(CN2CCC(C(=O)NCCCN3C[C@H](C)C[C@H](C)C3)CC2)c(C)o1 [7a, N-(3-(cis-3,5-Dimethylpiperidin-1-yl)propyl)-1-((5-methyl-2-(o-tolyl)oxazol-4-yl)-methyl)piperidine-4-carboxamide] | 489.1 1×10^−6 cm/s |
| Cc1ccc2ccccc2c1-c1nc(CN2CCC(C(=O)NCCCN3C[C@H](C)C[C@H](C)C3)CC2)c(C)o1 [7bbb, N-(3-(cis-3,5-Dimethylpiperidin-1-yl)propyl)-1-((5-methyl-2-(2-methylnaphthalen-1-yl)oxazol-4-yl)methyl)piperidine-4-carboxamide] | 547.1 1×10^−6 cm/s |
| CC[C@@H]1C[C@H](CC)CN(CCCNC(=O)C2CCN(Cc3nc(-c4ccccc4C)oc3C)CC2)C1 [7c, N-(3-(cis-3,5-Diethylpiperidin-1-yl)propyl)-1-((5-methyl-2-(otolyl)oxazol-4-yl)methyl)piperidine-4-carboxamide] | 1267 1×10^−6 cm/s |
| Cc1oc(-c2c(C)c(C)c(C)c(C)c2C)nc1CN1CCC(C(=O)NCCCN2C[C@H](C)C[C@H](C)C2)CC1 [7cc, N-(3-(cis-3,5-Dimethylpiperidin-1-yl)propyl)-1-((2-(2,3,4,5,6-pentamethylphenyl)-5-methyloxazol-4-yl)methyl)piperidine-4-carboxamide] | 455.2 1×10^−6 cm/s |
| Cc1ccccc1-c1nc(CN2CCC(C(=O)NCCCN3CC(C)(C)CC(C)(C)C3)CC2)c(C)o1 [7d, 1-((5-Methyl-2-(o-tolyl)oxazol-4-yl)methyl)-N-(3-(cis-3,3,5,5-tetramethylpiperidin-1-yl)propyl)piperidine-4-carboxamide] | >1397 1×10^−6 cm/s |
| Cc1oc(-c2ccccc2Cl)nc1CN1CCC(C(=O)NCCCN2C[C@H](C)C[C@H](C)C2)CC1 [7dd, N-(3-(cis-3,5-Dimethylpiperidin-1-yl)propyl)-1-((2-(2-chlorophenyl)-5-methyloxazol-4-yl)methyl)piperidine-4-carboxamide] | 352.4 1×10^−6 cm/s |
| Cc1ccccc1-c1nc(CN2CCC(C(=O)NCCCN3CCC(C(C)C)CC3)CC2)c(C)o1 [7e, N-(3-(4-Isopropylpiperidin-1-yl)propyl)-1-((5-methyl-2-(o-tolyl)-oxazol-4-yl)methyl)piperidine-4-carboxamide] | 395.6 1×10^−6 cm/s |
| Cc1oc(-c2cccc(Cl)c2)nc1CN1CCC(C(=O)NCCCN2C[C@H](C)C[C@H](C)C2)CC1 [7ee, N-(3-(cis-3,5-Dimethylpiperidin-1-yl)propyl)-1-((2-(3-chlorophenyl)-5-methyloxazol-4-yl)methyl)piperidine-4-carboxamide] | 615.1 1×10^−6 cm/s |
| Cc1ccccc1-c1nc(CN2CCC(C(=O)NCCCN3CCC(C)(C)CC3)CC2)c(C)o1 [7f, N-(3-(4,4-Dimethylpiperidin-1-yl)propyl)-1-((5-methyl-2-(o-tolyl)-oxazol-4-yl)methyl)piperidine-4-carboxamide] | 241.4 1×10^−6 cm/s |
| Cc1oc(-c2ccc(Cl)cc2)nc1CN1CCC(C(=O)NCCCN2C[C@H](C)C[C@H](C)C2)CC1 [7ff, N-(3-(cis-3,5-Dimethylpiperidin-1-yl)propyl)-1-((2-(4-chlorophenyl)-5-methyloxazol-4-yl)methyl)piperidine-4-carboxamide] | >635.0 1×10^−6 cm/s |
| Cc1ccccc1-c1nc(CN2CCC(C(=O)NCCCN3CCC(C)CC3)CC2)c(C)o1 [7g, N-(3-(4-Methylpiperidin-1-yl)propyl)-1-((5-methyl-2-(o-tolyl)-oxazol-4-yl)methyl)piperidine-4-carboxamide] | 424.7 1×10^−6 cm/s |
| Cc1ccccc1-c1nc(CN2CCC(C(=O)NCCCN3CCCCC3)CC2)c(C)o1 [7h, N-(3-(Piperidin-1-yl)propyl)-1-((5-methyl-2-(o-tolyl)oxazol-4-yl)-methyl)piperidine-4-carboxamide] | 34.5 1×10^−6 cm/s |
| Cc1ccccc1-c1nc(CN2CCC(C(=O)NCCCN3[C@H](C)CCC[C@@H]3C)CC2)c(C)o1 [7i, N-(3-(cis-2,6-Dimethylpiperidin-1-yl)propyl)-1-((5-methyl-2-(otolyl)oxazol-4-yl)methyl)piperidine-4-carboxamide] | 55.4 1×10^−6 cm/s |

| Compound | PAMPA permeability |
| --- | --- |
| Cc1oc(-c2c(F)cccc2F)nc1CN1CCC(C(=O)NCCCN2C[C@H](C)C[C@H](C)C2)CC1 [7jj, N-(3-(cis-3,5-Dimethylpiperidin-1-yl)propyl)-1-((2-(2,6-difluorophenyl)-5-methyloxazol-4-yl)methyl)piperidine-4-carboxamide] | 82.4 1×10^−6 cm/s |
| CC[C@@H]1C[C@H](CC)CN(CCCNC(=O)C2CCN(Cc3nc(-c4c(F)cccc4F)oc3C)CC2)C1 [7kk, N-(3-(cis-3,5-Diethylpiperidin-1-yl)propyl)-1-((2-(2,6-difluorophenyl)-5-methyloxazol-4-yl)methyl)piperidine-4-carboxamide] | 129.9 1×10^−6 cm/s |
| Cc1oc(-c2c(Br)cccc2Br)nc1CN1CCC(C(=O)NCCCN2C[C@H](C)C[C@H](C)C2)CC1 [7ll, N-(3-(cis-3,5-Dimethylpiperidin-1-yl)propyl)-1-((2-(2,6-dibromophenyl)-5-methyloxazol-4-yl)methyl)piperidine-4-carboxamide] | <1.0 1×10^−6 cm/s |
| Cc1ccccc1-c1nc(CN2CCC(C(=O)NCCCN3CC4CCCC(C4)C3)CC2)c(C)o1 [7m, N-(3-(3-Azabicyclo[3.3.1]nonan-3-yl)propyl)-1-((5-methyl-2-(otolyl)oxazol-4-yl)methyl)piperidine-4-carboxamide] | 330.9 1×10^−6 cm/s |
| Cc1ccccc1-c1nc(CN2CCC(C(=O)NCCN3C[C@H](C)C[C@H](C)C3)CC2)c(C)o1 [7n, N-(3-(cis-3,5-Dimethylpiperidin-1-yl)ethyl)-1-((5-methyl-2-(otolyl)oxazol-4-yl)methyl)piperidine-4-carboxamide] | 712.4 1×10^−6 cm/s |
| Cc1cccc(Cl)c1-c1nc(CN2CCC(C(=O)NCCCN3C[C@H](C)C[C@H](C)C3)CC2)c(C)o1 [7nn, N-(3-(cis-3,5-Dimethylpiperidin-1-yl)propyl)-1-((2-(2-chloro-6-methylphenyl)-5-methyloxazol-4-yl)methyl)piperidine-4-carboxamide] | 196.3 1×10^−6 cm/s |
| CCCN(CCC)CCNC(=O)C1CCN(Cc2nc(-c3ccccc3C)oc2C)CC1 [7p, N-(2-(Dipropylamino)ethyl)-1-((5-methyl-2-(o-tolyl)oxazol-4-yl)-methyl)piperidine-4-carboxamide] | 913.1 1×10^−6 cm/s |
| Cc1ccccc1-c1nc(CN2CCC(C(=O)NCCCN3CCOCC3)CC2)c(C)o1 [7q] | 432.4 1×10^−6 cm/s |
| Cc1ccccc1-c1nc(CN2CCC(C(=O)N3CCN(C4CCN(C)CC4)CC3)CC2)c(C)o1 [7r, (1-((5-Methyl-2-(o-tolyl)oxazol-4-yl)methyl)piperidin-4-yl)(4-(1-methylpiperidin-4-yl)piperazin-1-yl)methanone] | <3.2 1×10^−6 cm/s |
| Cc1ccccc1-c1nc(CN2CCC(C(=O)N3CCN(CCN(C)C)CC3)CC2)c(C)o1 [7s, (4-(2-(Dimethylamino)ethyl)piperazin-1-yl)(1-((5-methyl-2-(otolyl)oxazol-4-yl)methyl)piperidin-4-yl)methanone] | 14 1×10^−6 cm/s |
| Cc1cccc(F)c1-c1nc(CN2CCC(C(=O)NCCCN3C[C@H](C)C[C@H](C)C3)CC2)c(C)o1 [7ss, N-(3-(cis-3,5-Dimethylpiperidin-1-yl)propyl)-1-((2-(2-fluoro-6-methylphenyl)-5-methyloxazol-4-yl)methyl)piperidine-4-carboxamide] | 233.8 1×10^−6 cm/s |
| Cc1cccc(-c2nc(CN3CCC(C(=O)NCCCN4C[C@H](C)C[C@H](C)C4)CC3)c(C)o2)c1 [7t, N-(3-(cis-3,5-Dimethylpiperidin-1-yl)propyl)-1-((5-methyl-2-(mtolyl)oxazol-4-yl)methyl)piperidine-4-carboxamide] | 279.1 1×10^−6 cm/s |
| COc1cccc(Br)c1-c1nc(CN2CCC(C(=O)NCCCN3C[C@H](C)C[C@H](C)C3)CC2)c(C)o1 [7tt, N-(3-(cis-3,5-Dimethylpiperidin-1-yl)propyl)-1-((2-(2-bromo-6-methoxyphenyl)-5-methyloxazol-4-yl)methyl)piperidine-4-carboxamide] | 245.3 1×10^−6 cm/s |
| Cc1ccc(-c2nc(CN3CCC(C(=O)NCCCN4C[C@H](C)C[C@H](C)C4)CC3)c(C)o2)cc1 [7u, N-(3-(cis-3,5-Dimethylpiperidin-1-yl)propyl)-1-((5-methyl-2-(ptolyl)oxazol-4-yl)methyl)piperidine-4-carboxamide] | 274.3 1×10^−6 cm/s |
| COc1cccc(Cl)c1-c1nc(CN2CCC(C(=O)NCCCN3C[C@H](C)C[C@H](C)C3)CC2)c(C)o1 [7uu, N-(3-(cis-3,5-Dimethylpiperidin-1-yl)propyl)-1-((2-(2-chloro-6-methoxyphenyl)-5-methyloxazol-4-yl)methyl)piperidine-4-carboxamide] | 51.0 1×10^−6 cm/s |
| CCc1ccccc1-c1nc(CN2CCC(C(=O)NCCCN3C[C@H](C)C[C@H](C)C3)CC2)c(C)o1 [7v, N-(3-(cis-3,5-Dimethylpiperidin-1-yl)propyl)-1-((2-(2-ethylphenyl)-5-methyloxazol-4-yl)methyl)piperidine-4-carboxamide] | 106.1 1×10^−6 cm/s |
